Results from paper PMC9864790, “Cell-Penetrating Dabcyl-Containing Tetraarginines with Backbone Aromatics as Uptake Enhancers” (Pharmaceutics, 2022).
Like-named read-outs stand apart in the source and are kept apart here. Starred links: 1 amine or outer side, 2 acyl side, 3 side chain; linkers in the order of their positions; H or OH if unused. Non-standard residues stand in square brackets, D forms with d. Residues, ends and D or L forms follow the SMILES beside them. Groups on a side chain read outwards from the residue. *: point of attachment. Daunorubicin = COc1cccc2c1C(=O)c1c(O)c3c(c(O)c1C2=O)C[C@@](O)(C(C)=O)C[C@@H]3O[C@H]1C[C@H](N*)[C@H](O)[C@H](C)O1; Dabcyl = CN(C)c1ccc(N=Nc2ccc(C(=O)*)cc2)cc1; X1 = O=C(c1ccc2cc(N[*:1])ccc2c1)[*:2]; Suc = O=C(CCC(=O)[*:2])[*:1]; 4Amb = NCc1ccc(C(=O)O)cc1; 4Abz = Nc1ccc(C(=O)O)cc1

Columns and labels:
MCF-7 [1] = details: 3 h incubation, 3 days culture, MTT assay; cited from earlier work
Source text: Table 3 Cytostatic activity of peptide/drug conjugates on MCF-7 and MDA-MB-231. | column: IC50 ±SD (µM) ^a / MCF-7

MDA-MB-231 [2] = details: 3 h incubation, 3 days culture, MTT assay; cited from earlier work
Source text: Table 3 Cytostatic activity of peptide/drug conjugates on MCF-7 and MDA-MB-231. | column: IC50 ±SD (µM) ^a / MDA-MB-231

MDA-MB-231 cells [3] = experiment: Effect of endocytosis inhibitors on cellular uptake (flow cytometry); type: cell-based, human; details: then Cf-labelled peptide conjugate 5 µM, 90 min, 37 °C; for Effect of EIPA on uptake: EIPA 50 µM pretreatment 30 min; for Effect of CPZ on uptake: chlorpromazine (CPZ) 30 µM pretreatment 30 min; for Effect of COL on uptake: colchicine (COL) 20 µM pretreatment 30 min
Source text: Several endocytic routes can be used by CPPs for entry, which then determine their intracellular fate. […] The following inhibitors were applied: 5-(N-ethyl-N-isopropyl)amiloride (EIPA) as […] [39], chlorpromazine (CPZ) to inhibit clathrin-mediated endocytosis, methyl-beta-cyclodextrin (CyD) to deplete cholesterol from the lipid rafts, and thus to inhibit caveolae-mediated endocytosis. Finally, colchicine (COL) was used to ascertain if microtubules are involved in the uptake of the peptides as this agent inhibits microtubule formation.
The effect of inhibitors was studied in the same manner but with pretreatment by an inhibitor for 30 min, and subsequently treated with a peptide conjugate at 5 µM. The cells were then incubated for 90 min at 37 °C. Macropinocytosis was inhibited using 5-(N-Ethyl-N-isopropyl)amiloride (EIPA), clathrin-mediated endocytosis with chlorpromazine (CPZ), colchicine (Col) to assess the role of microtubules, and methyl-β-cyclodextrin (CyD) for the inhibition of caveolae/lipid-raft-mediated endocytosis.
Figure 8 Effect of endocytosis inhibitors on the cellular uptake of peptide conjugates. MDA-MB-231 cells were pretreated with inhibitors EIPA (50 µM), CPZ (30 µM), CyD (5 mM) and COL (20 µM) for 30 min, the cells were then treated with the peptide conjugates (5 µM) for 90 min. Significant difference from control was measured using student’s t test (* p <0.05, ** p < 0.01and **** p< 0.0001).

MDA-MB-231 cells [4] = experiment: Effect of ATP depletion (NaN3 and DOG) on cellular uptake (flow cytometry); type: cell-based, human; details: NaN3 10 mM and DOG 5 mM pretreatment 30 min, then peptide conjugate 5 µM, 90 min, 37 °C
Experimental: In order to inhibit all pathways of endocytosis, MDA-MB-231 cells were pretreated with sodium azide (NaN3) (10 mM) and 2-Deoxyglucose (DOG) (5 mM) for 30 min and the peptide was added to the wells. The cells were then incubated for 90 min at 37 °C.
Figure 9 Effect of endocytosis inhibitors on the cellular uptake of peptide conjugates. MDA-MB-231 cells were pretreated with NaN3 (10 mM) and DOG (5 mM) for 30 min, the cells were then treated with the peptide conjugates (5 µM) for 90 min. Significant difference from control was measured using Student’s t test (* p < 0.05 and ** p < 0.01).

MCF-7 [5] = experiment: In vitro cytostatic activity, MTT assay; type: cell-based, human; details: 3 h incubation with compound (0.4–100 µM), then 3 days culture in serum containing medium, three independent experiments with 4 parallel measurements
Experimental: (§1) Cells were grown to confluency and were plated into 96-well plates with initial cell number of 5 × 10^3 per well. The cells were incubated at 37 °C for 24 h. Then, cells were treated with the compounds at 0.4–100 µM concentration range for 3 h in 200 µL as the final volume. Control cells were treated with serum free medium at 37 °C for 3 h. After the incubation, the cells were washed with serum free medium twice. To analyze the in vitro cytostatic effect, cells were further cultured for 72 h in serum containing medium. Then, the MTT assay was performed to measure the IC50 values. […] The cells were incubated for 4 h. Then, the plates were centrifuged at 900× g for 5 min, and the supernatant was discarded. To dissolve the formed purple crystals, 100 µL of DMSO was added, and the absorbance was determined at λ = 540 nm and 620 nm using ELISA plate reader (iEMS Reader, Labsystems, Finland). To measure the percentage of cytostasis, the following equation was used for calculation: Cytostatic effect (%) = [1 − (ODtreated/ODcontrol)] × 100; where ODtreated and ODcontrol correspond to the optical densities of the treated and untreated cells, respectively. In each case, three independent experiments were carried out with 4 parallel measurements. […] The curves were defined using MicrocalTM Origin (version 9.2) software: cytostasis was plotted as a function of concentration, fitted to a sigmoidal curve, and based on this curve, the IC50 value was determined.

MDA-MB-231 [6] = experiment: In vitro cytostatic activity, MTT assay; type: cell-based, human; details: 3 h incubation with compound (0.4–100 µM), then 3 days culture in serum containing medium, three independent experiments with 4 parallel measurements
Experimental: as §1

MDA-MB-231 cells [7] = experiment: Cellular uptake of fluorescently labelled peptides by flow cytometry; type: cell-based, human; details: 90 min, flow cytometry after trypsin treatment
Experimental: Cellular uptake of peptides was measured using flow cytometry on MCF-7 and MDA-MB-231 cells. Cells were treated with the fluorescently labelled peptides at 1, 5 and 10 µM concentrations for 90 min at 37 °C.
To study the cellular uptake of fluorophore-labelled peptides, 10^5 cells per well were plated on 24-well plates. Cells were incubated for 24 h at 37 °C, followed by treatment with the peptides at different concentrations, in serum-free medium for different time intervals. For negative control, cells were treated with serum-free medium. After the incubation, the peptide solutions were removed and 100 µL trypsin (0.25%) was added for 5–10 min to remove membrane bound peptides and detach the adherent cells from the plates. […] The fluorescence intensity of cells was quantified by flow cytometer (BD LSR II, BD Bioscience, San Jose, CA, USA). Data were analyzed with FACSDiVa 5.0 software.
Cells were treated with 1, 5 and 10 µM peptide solution for 90 min. The fluorescence intensity of the cells was determined by flow cytometry after trypsin treatment. […]
Cells were treated with 1, 5 and 10 µM peptide solutions for 90 min. The fluorescence intensity of the cells was determined by flow cytometry after trypsin treatment.

| Compound | IC50 (MCF-7 [1]) | IC50 (MDA-MB-231 [2]) | IC50 (MCF-7 [5]) | IC50 (MDA-MB-231 [6]) | other results |
| --- | --- | --- | --- | --- | --- |
| Succinylated daunomycin [DauSuc] | 24.5 ± 7.1 µM | > 100 µM |  |  |  |
| CN(Cc1cnc2nc(N)nc(N)c2n1)c1ccc(C(=O)N[C@@H](CCC(=O)O)C(=O)O)cc1 [MTX, methotrexate] | 0.8 ± 0.3 µM | > 100 µM |  |  |  |
| Dabcyl-AMBA-RRRRK |  |  |  |  | Effect of EIPA on uptake (MDA-MB-231 cells [3]): decreased the uptake; Effect of CPZ on uptake (MDA-MB-231 cells [3]): did not cause any inhibition; Effect of COL on uptake (MDA-MB-231 cells [3]): did not cause any inhibition; Uptake after pretreatment with NaN3 and DOG (MDA-MB-231 cells [4]): significantly lower |
| COc1cccc2c1C(=O)c1c(O)c3c(c(O)c1C2=O)C[C@@](O)(C(C)=O)C[C@@H]3O[C@H]1C[C@H](NC(=O)CCC(=O)NCCCC[C@H](NC(=O)[C@H](CCCNC(=N)N)NC(=O)[C@H](CCCNC(=N)N)NC(=O)[C@H](CCCNC(=N)N)NC(=O)[C@H](CCCNC(=N)N)NC(=O)c2ccc(NC(=O)c3ccc(N=Nc4ccc(N(C)C)cc4)cc3)cc2)C(N)=O)[C@H](O)[C@H](C)O1 [Dabcyl-PABA- Arg-Arg-Arg-Arg-Lys(DauSuc)] ({Dabcyl-4Abz}-RRRRK([Suc-Daunorubicin])-NH2) |  |  | 17.7 ± 1.2 µM | 14.3 ± 1.1 µM |  |
| COc1cccc2c1C(=O)c1c(O)c3c(c(O)c1C2=O)C[C@@](O)(C(C)=O)C[C@@H]3O[C@H]1C[C@H](NC(=O)CCC(=O)NCCCC[C@H](NC(=O)[C@H](CCCNC(=N)N)NC(=O)[C@H](CCCNC(=N)N)NC(=O)[C@H](CCCNC(=N)N)NC(=O)[C@H](CCCNC(=N)N)NC(=O)c2ccc3cc(NC(=O)c4ccc(N=Nc5ccc(N(C)C)cc5)cc4)ccc3c2)C(N)=O)[C@H](O)[C@H](C)O1 [Dabcyl-NAPH- Arg-Arg-Arg-Arg-Lys(DauSuc)] (Dabcyl-[X1]RRRRK([Suc-Daunorubicin])-NH2) |  |  | 15 ± 4.2 µM | 16.6 ± 0.5 µM |  |
| Dabcyl-PABA-RRRRK |  |  |  |  | Uptake relative to Arg8 (MDA-MB-231 cells [7]; CY5-labelled peptide, at all concentrations (1, 5 and 10 µM)): 3 to 4.5 folds; Relative uptake intensity (MDA-MB-231 cells [7]; Cf-labelled peptide, 10 µM, 37 °C, fluorescence intensity relative to Dabcyl-RRWRRK(Cf) at 10 µM (100%)): 340%; Effect of EIPA on uptake (MDA-MB-231 cells [3]): did not alter the internalization; Effect of CPZ on uptake (MDA-MB-231 cells [3]): did not cause any inhibition; Effect of COL on uptake (MDA-MB-231 cells [3]): did not cause any inhibition; Uptake after pretreatment with NaN3 and DOG (MDA-MB-231 cells [4]): significantly lower |
| Dabcyl-Trp-Arg-Arg-Arg-Arg-Lys(MTX) | 36.9 ± 3 µM | 7.4 ± 2.2 µM |  |  |  |
| Dabcyl-Trp-Arg-Arg-Arg-Arg-Lys(DauSuc) | 26.4 ± 4.2 µM | 18 ± 6.7 µM |  |  |  |
| COc1cccc2c1C(=O)c1c(O)c3c(c(O)c1C2=O)C[C@@](O)(C(C)=O)C[C@@H]3O[C@H]1C[C@H](NC(=O)CCC(=O)NCCCC[C@H](NC(=O)[C@H](CCCNC(=N)N)NC(=O)[C@H](CCCNC(=N)N)NC(=O)[C@H](CCCNC(=N)N)NC(=O)[C@H](CCCNC(=N)N)NC(=O)c2ccc(CNC(=O)c3ccc(N=Nc4ccc(N(C)C)cc4)cc3)cc2)C(N)=O)[C@H](O)[C@H](C)O1 [Dabcyl-AMBA-Arg-Arg-Arg-Arg-Lys(DauSuc)] ({Dabcyl-4Amb}-RRRRK([Suc-Daunorubicin])-NH2) |  |  | 10.3 ± 5 µM | 10.1 ± 6 µM |  |
